Experimental data as given in ChEMBL document CHEMBL1201862, “PubChem BioAssay data set” (2004).
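Assay format: 96-well plates, 48-hour exposure. Abbreviation: GI50, concentration required for 50% inhibition of growth.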 Activity calls are given as the source filed them. Rule as the data show it: active = GI50 up to about 1.1 µM and inactive = higher.

How the values were obtained:
Experiment in all cases: inhibition of tumour cell growth, NCI panel, 48 h
786-0 = tested on: 786-0
A498 = tested on: A498
A549 = tested on: A549
ACHN = tested on: ACHN
BT-549 = tested on: BT-549
CCRF-CEM = tested on: CCRF-CEM
COLO 205 = tested on: COLO 205
DLD-1 = tested on: DLD-1
DMS-114 = tested on: DMS-114
DMS-273 = tested on: DMS-273
DU-145 = tested on: DU-145
EKVX = tested on: EKVX
HCC 2998 = tested on: HCC 2998
HCT-116 = tested on: HCT-116
HCT-15 = tested on: HCT-15
HL-60 = tested on: HL-60
HOP-18 = tested on: HOP-18
HOP-62 = tested on: HOP-62
HOP-92 = tested on: HOP-92
HT-29 = tested on: HT-29
IGROV-1 = tested on: IGROV-1
K562 = tested on: K562
KM-20L2 = tested on: KM-20L2
KM12 = tested on: KM12
LOX IMVI = tested on: LOX IMVI
LXFL 529 = tested on: LXFL 529
M14 = tested on: M14
M19-MEL = tested on: M19-MEL
MCF7 = tested on: MCF7
MDA-MB-231 = tested on: MDA-MB-231
MDA-MB-435 = tested on: MDA-MB-435
MDA-N = tested on: MDA-N
MOLT-4 = tested on: MOLT-4
Malme-3M = tested on: Malme-3M
NCI-H226 = tested on: NCI-H226
NCI-H23 = tested on: NCI-H23
NCI-H460 = tested on: NCI-H460
NCI-H522 = tested on: NCI-H522
NCI/ADR-RES = tested on: NCI/ADR-RES
OVCAR-3 = tested on: OVCAR-3
OVCAR-4 = tested on: OVCAR-4
OVCAR-5 = tested on: OVCAR-5
OVCAR-8 = tested on: OVCAR-8
PC-3 = tested on: PC-3
RPMI-8226 = tested on: RPMI-8226
RXF 393 = tested on: RXF 393
SF-268 = tested on: SF-268
SF-295 = tested on: SF-295
SF-539 = tested on: SF-539
SK-MEL-28 = tested on: SK-MEL-28
SK-MEL-2 = tested on: SK-MEL-2
SK-MEL-5 = tested on: SK-MEL-5
SK-OV-3 = tested on: SK-OV-3
SN12C = tested on: SN12C
SNB-19 = tested on: SNB-19
SNB-75 = tested on: SNB-75
SNB-78 = tested on: SNB-78
SR = tested on: SR
SW-620 = tested on: SW-620
T47D = tested on: T47D
TK-10 = tested on: TK-10
U-251 = tested on: U-251
UACC-257 = tested on: UACC-257
UACC-62 = tested on: UACC-62
UO-31 = tested on: UO-31
XF498 = tested on: XF498

## COc1cc(C2c3cc4c(cc3[C@@H](Nc3cccc(O)c3)C3COC(=O)[C@H]23)OCO4)cc(OC)c1O (stereo partly specified)
786-0
  GI50: 2070 nM (inactive)
A498
  GI50: 1620 nM (inactive)
A549
  GI50: 439 nM (active)
ACHN
  GI50: 668 nM (active)
BT-549
  GI50: 1910 nM (inactive)
CCRF-CEM
  GI50: 425 nM (active)
COLO 205
  GI50: 6170 nM (inactive)
DLD-1
  GI50: 3560 nM (inactive)
DMS-114
  GI50: 794 nM (active)
DMS-273
  GI50: 887 nM (active)
DU-145
  GI50: 197 nM (active)
EKVX
  GI50: 5160 nM (inactive)
HCC 2998
  GI50: 3580 nM (inactive)
HCT-116
  GI50: 1760 nM (inactive)
HCT-15
  GI50: 1930 nM
HL-60
  GI50: 445 nM (active)
HOP-18
  GI50: 8590 nM (inactive)
HOP-62
  GI50: 817 nM (active)
HOP-92
  GI50: 1320 nM (inactive)
HT-29
  GI50: 3330 nM (inactive)
IGROV-1
  GI50: 3980 nM (inactive)
K562
  GI50: 1690 nM (inactive)
KM-20L2
  GI50: 2160 nM (inactive)
KM12
  GI50: 3310 nM (inactive)
LOX IMVI
  GI50: 703 nM (active)
LXFL 529
  GI50: 2550 nM (inactive)
M14
  GI50: 2790 nM (inactive)
M19-MEL
  GI50: 1970 nM (inactive)
MCF7
  GI50: 460 nM (active)
MDA-MB-231
  GI50: 5420 nM (inactive)
MDA-MB-435
  GI50: 2950 nM (inactive)
MDA-N
  GI50: 2700 nM (inactive)
MOLT-4
  GI50: 35.9 nM (active)
Malme-3M
  GI50: 2300 nM (inactive)
NCI-H226
  GI50: 771 nM (active)
NCI-H23
  GI50: 1050 nM (active)
NCI-H460
  GI50: 72.6 nM (active)
NCI-H522
  GI50: 1320 nM (inactive)
NCI/ADR-RES
  GI50: 1400 nM (inactive)
OVCAR-3
  GI50: 4040 nM (inactive)
OVCAR-4
  GI50: 12200 nM (inactive)
OVCAR-5
  GI50: 8260 nM (inactive)
OVCAR-8
  GI50: 2000 nM (inactive)
PC-3
  GI50: 2140 nM (inactive)
RPMI-8226
  GI50: 948 nM (active)
RXF 393
  GI50: 1440 nM (inactive)
SF-268
  GI50: 1890 nM (inactive)
SF-295
  GI50: 1090 nM (active)
SF-539
  GI50: 1140 nM (inactive)
SK-MEL-28
  GI50: 2810 nM (inactive)
SK-MEL-2
  GI50: 5200 nM (inactive)
SK-MEL-5
  GI50: 1700 nM (inactive)
SK-OV-3
  GI50: 4610 nM (inactive)
SN12C
  GI50: 1550 nM (inactive)
SNB-19
  GI50: 3700 nM (inactive)
SNB-75
  GI50: 2380 nM (inactive)
SNB-78
  GI50: 6030 nM (inactive)
SR
  GI50: 191 nM (active)
SW-620
  GI50: 2800 nM (inactive)
T47D
  GI50: 2240 nM (inactive)
TK-10
  GI50: 4510 nM (inactive)
U-251
  GI50: 2040 nM (inactive)
UACC-257
  GI50: 2050 nM (inactive)
UACC-62
  GI50: 1200 nM (inactive)
UO-31
  GI50: 1570 nM (inactive)
XF498
  GI50: 766 nM (active)
